Molecules are shown by their SMILES. Values joined by “and” are separate entries in the source; they are usually repeats but may differ in a detail not shown here. Identical values can stand only once. Where only a bound is given, the exact number is not on record here.

In one assay the test system is NMDA receptor. Nature of the assay: Inhibition of NMDA/glycine-induced increases in intracellular calcium in cultured rat cerebellar granule cells (RCGC). The class given is cell-based. The settings on record: NMDA/glycine-induced increases in intracellular calcium, cultured rat cerebellar granule cells; read-out: IC50 (μM) vs. NMDA.
Assay [1] concerns the target NMDA receptor-ionophore complex (site labeled by [3H]MK-801). Nature of the assay: Inhibition of [3H]MK-801 binding in rat cortical/hippocampal washed membrane preparations. To be noted: read-out: IC50 (μM) vs. [3H]MK-801; rat cortical/hippocampal washed membranes.

For orientation: IC50 means the concentration that inhibits the measured activity by half. For `COc1ccc(C(CCN)c2cccc(F)c2)cc1` (stereo not drawn) [Compound 26, 3-(3-fluorophenyl)-3-(4-methoxyphenyl)-1-propylamine], the values for the IC50 (with NMDA receptor; in assay [1]) were 27 µM and 34 µM, respectively.
The like results for `Cc1ccccc1C(CCN)c1cccc(F)c1` (stereo not drawn) [Compound 27, 3-(3-fluorophenyl)-3-(2-methylphenyl)-1-propylamine] were, in that order, 0.071 µM and 0.18 µM.
The like results for `Cc1cccc(C(CCN)c2cccc(F)c2)c1` (stereo not drawn) [Compound 28, 3-(3-fluorophenyl)-3-(3-methylphenyl)-1-propylamine] were, in that order, 0.38 µM and 2.3 µM.
The like results for `Cc1ccc(C(CCN)c2cccc(F)c2)cc1` (stereo not drawn) [Compound 29, 3-(3-fluorophenyl)-3-(4-methylphenyl)-1-propylamine] were, in that order, 1.9 µM and 5.8 µM.
Take `NCCC(c1cccc(F)c1)c1cccc(Cl)c1` (stereo not drawn) [Compound 30, 3-(3-fluorophenyl)-3-(3-chlorophenyl)-1-propylamine]: the half-inhibitory concentration (IC50) in the assay on NMDA receptor was 0.035 µM; in assay [1] it was 0.407 µM.
For the molecule `NCCC(c1ccccc1)c1cccc(F)c1` (stereo not drawn) [Compound 32, 3-(3-fluorophenyl)-3-phenyl-1-propylamine], the results for the IC50 (in the assay with NMDA receptor; in assay [1]) were 0.284 µM and 0.799 µM, respectively.
Regarding `CCC(CCN)c1cccc(F)c1` (stereo not drawn) [Compound 35], the half-maximal inhibitory concentration (IC50) came out at 6.2 µM in the assay with NMDA receptor and 25.1 µM in assay [1].
For `CC(C)C(CCN)c1cccc(F)c1` (stereo not drawn) [Compound 37], in that order: 0.944 µM and 11.1 µM.
On to `CC(N)C(C)C(c1cccc(F)c1)c1cccc(F)c1` (stereo not drawn) [Compound 38, 3,3-bis(3-fluorophenyl)-1,2-dimethyl-1-propylamine], for which the IC50 with NMDA receptor was 0.407 µM; in assay [1], 2.3 µM.
The like results for `CCNC[C@H](C)C(c1cccc(F)c1)c1cccc(F)c1` [Compound 39] were, in that order, 0.251 µM and 2.9 µM.
For `CC(C)(CN)C(c1cccc(F)c1)c1cccc(F)c1` [Compound 41, 3,3-bis(3-fluorophenyl)-2,2-dimethyl-1-propylamine], in that order: 0.724 µM and 14 µM.
The like results for `CC(N)CC(c1cccc(Cl)c1)c1cccc(Cl)c1` (stereo not drawn) [Compound 43] were, in that order, 0.232 µM and 7.5 µM.
As for `NCCC(c1cccc(F)c1)c1ccccc1F` (stereo not drawn) [Compound 52, 3-(2-fluorophenyl)-3-(3-fluorophenyl)-1-propylamine], the values for the IC50 (in the assay with NMDA receptor; in assay [1]) were 0.102 µM and 0.38 µM, respectively.
With `NCCC(c1ccccc1F)c1ccccc1F` [Compound 53, 3,3-bis(2-fluorophenyl)-1-propylamine], the half-maximal inhibitory concentration (IC50) with NMDA receptor was found to be 0.217 µM; in assay [1] it was 4.2 µM.
The like results for `CCC(CN)C(c1cccc(F)c1)c1cccc(F)c1` (stereo not drawn) [Compound 55, 3,3-bis(3-fluorophenyl)-2-ethyl-1-propylamine] were, in that order, 0.035 µM and 0.153 µM.
For `Cc1c(F)cccc1C(CCN)c1cccc(F)c1` (stereo not drawn) [Compound 56, 3-(3-fluorophenyl)-3-(2-methyl-3-fluorophenyl)-1-propylamine], in that order: 0.218 µM and 0.955 µM.
Consider `COc1ccc(F)cc1C(CCN)c1cccc(F)c1` (stereo not drawn) [Compound 61, 3-(3-fluorophenyl)-3-(3-fluoro-6-methoxyphenyl)-1-propylamine], for which the IC50 with NMDA receptor is 0.134 µM; in assay [1], 0.324 µM.
On to `COc1ccccc1C(CCN)c1ccccc1OC` [Compound 62, 3,3-bis(2-methoxyphenyl)-1-propylamine], for which the IC50 in the assay on NMDA receptor is 0.177 µM; in assay [1], 0.617 µM.
For `Cc1ccccc1C(CCN)c1ccccc1C` [Compound 65, 3,3-bis(2-methylphenyl)-1-propylamine], in that order: 0.167 µM and 2 µM.
For `CNC[C@H](C)C(c1cccc(F)c1)c1cccc(F)c1` [Compound 66], in that order: 0.236 µM and 1.2 µM.
Turning to `CNCCC(c1ccccc1)c1ccccc1` [Compound 67, N-methyl-3,3-diphenylpropylamine], the figures for the IC50 (in the assay on NMDA receptor; in assay [1]) were 11 µM and 2.9 µM, respectively.
In the case of `CN[C@@H](C)CC(c1cccc(F)c1)c1cccc(F)c1` [Compound 69], the concentration for half-maximal inhibition (IC50) worked out at 0.224 µM in the assay with NMDA receptor and 0.366 µM in assay [1].
The like results for `NCCC(c1ccncc1)c1cccc(F)c1` (stereo not drawn) [Compound 79] were, in that order, 12.6 µM and 10.2 µM.
For `CCC(CC)(CN)C(c1cccc(F)c1)c1cccc(F)c1` [Compound 80, 3,3-bis(3-fluorophenyl)-2,2-diethyl-1-propylamine], in that order: 28 µM and 182 µM.
For `NCC=C(c1ccccc1)c1ccccc1` [Compound 81, 3,3-diphenyl-prop-2-ene-1-amine], in that order: 1.4 µM and 6.1 µM.
As for `CCC(CCN)(c1cccc(F)c1)c1cccc(F)c1` [Compound 82, 3,3-bis(3-fluorophenyl)-3-ethyl-1-propylamine], the figures for the IC50 (with NMDA receptor; in assay [1]) were 0.106 µM and 0.794 µM, respectively.
The like results for `NCCC(c1cccc(F)c1)c1cccs1` (stereo not drawn) [Compound 83] were, in that order, 0.342 µM and 0.794 µM.
The like results for `OC1(C(c2cccc(F)c2)c2cccc(F)c2)CCNC1` (stereo not drawn) [Compound 84] were, in that order, 7.9 µM and 23.4 µM.
Take `C[C@H](C(c1ccccc1)c1ccccc1)[C@@H](C)N` [Compound 86]: the values for the IC50 (in the assay with NMDA receptor; in assay [1]) were 1.2 µM and 6 µM, respectively.
The like results for `C[C@H](N)[C@H](C)C(c1ccccc1)c1ccccc1` [Compound 87] were, in that order, 0.657 µM and 3 µM.
As to `NCCOC(c1ccccc1)c1ccccc1` [Compound 88], the figures for the half-inhibitory concentration (IC50) (with NMDA receptor; in assay [1]) were 2.5 µM and 10.6 µM, respectively.
For `N=C(N)CC(c1cccc(F)c1)c1cccc(F)c1` [Compound 89], in that order: 0.24 µM and 1.2 µM.
For `NCCC(c1ccsc1)c1cccc(F)c1` (stereo not drawn) [Compound 90], in that order: 0.27 µM and 1.4 µM.
`CCC(NCCC(c1ccccc1)c1ccccc1)c1ccccc1` (stereo not drawn) [Compound 91]: the IC50 with NMDA receptor is 0.162 µM; in assay [1], 14.1 µM.
For `Fc1cccc(C(CCNCc2ccccc2)c2cccc(F)c2)c1` [Compound 92], in that order: 1.3 µM and 20.2 µM.
For `CC(NCCC(c1cccc(F)c1)c1cccc(F)c1)c1ccccc1` (stereo not drawn) [Compound 93], in that order: 0.486 µM and 26.9 µM.
For `CCC(NCCC(c1cccc(F)c1)c1cccc(F)c1)c1ccccc1` (stereo not drawn) [Compound 94], the IC50 with NMDA receptor is 0.248 µM; in assay [1], 22.6 µM.
On to `NCCC(c1cc(F)cc(F)c1)c1cc(F)cc(F)c1` [Compound 95, 3,3-bis(3,5,difluorophenyl)-1-propylamine], for which the IC50 in the assay with NMDA receptor was 0.311 µM; in assay [1] it was 3 µM.
The like results for `NCCC(c1cccc(F)c1)c1cc(F)cc(F)c1` (stereo not drawn) [Compound 96, 3-(3,5-difluorophenyl)-3-(3-fluorophenyl)-1-propylamine] were, in that order, 0.187 µM and 1.1 µM.
The like results for `COc1ccccc1C(CCN)c1ccccc1` (stereo not drawn) [Compound 97, 3-(2-methoxyphenyl)-3-phenyl-1-propylamine] were, in that order, 0.41 µM and 2.6 µM.
In the case of `NCC(c1cccc(F)c1)c1cccc(F)c1` [Compound 98, 2,2-bis(3-fluorophenyl)-1-ethylamine], the IC50 in the assay on NMDA receptor worked out at 7.9 µM; in assay [1] it was 52.5 µM.
In the case of `NCC(c1ccc(F)cc1)c1ccc(F)cc1` [Compound 99], the concentration for half-maximal inhibition (IC50) is over 100 µM in the assay on NMDA receptor and 105 µM in assay [1].
Turning to `NCCCC(c1cccc(F)c1)c1cccc(F)c1` [Compound 100, 4,4-bis(3-fluorophenyl)-1-butylamine], the half-inhibitory concentration (IC50) with NMDA receptor was found to be 0.602 µM; in assay [1], 3.2 µM.
As to `NCCC(c1cccc(O)c1)c1cccc(F)c1` (stereo not drawn) [Compound 101], the values for the half-maximal inhibitory concentration (IC50) (in the assay on NMDA receptor; in assay [1]) were 0.912 µM and 2 µM, respectively.
With `Fc1cccc(C(c2cccc(F)c2)C2CCNC2)c1` (stereo not drawn) [Compound 102], the results for the IC50 (with NMDA receptor; in assay [1]) were 1.01 µM and 3.3 µM, respectively.
For `NCCC(c1cccc(F)c1)c1ccccc1O` (stereo not drawn) [Compound 103, 3-(2-hydroxyphenyl)-3-(3-fluorophenyl)-1-propylamine], in that order: 0.38 µM and 0.661 µM.
For the molecule `NCCCC(c1ccc(F)cc1)c1ccc(F)cc1` [Compound 104], the IC50 in the assay on NMDA receptor is 7.98 µM; in assay [1], over 10 µM.
The like results for `CN(CCC(c1cccc(F)c1)c1cccc(F)c1)Cc1ccccc1` [Compound 105] were, in that order, 1.03 µM and over 3 µM.
The like results for `CNCC=C(c1cccc(F)c1)c1cccc(F)c1` [Compound 106] were, in that order, 0.767 µM and 1.31 µM.
As to `CNCCC(c1ccccc1)c1cccc(F)c1` (stereo not drawn) [Compound 108, N-methyl-3-(3-fluorophenyl)-3-phenyl-1-propylamine], the IC50 was 1.06 µM with NMDA receptor and 0.942 µM in assay [1].
For `Fc1cccc(C(=C2CCCNC2)c2cccc(F)c2)c1` [Compound 109], in that order: 1.95 µM and 1.08 µM.
For `Fc1cccc(C(=C2CCNCC2)c2cccc(F)c2)c1` [Compound 110], in that order: 42.7 µM and 13.3 µM.
On to `Fc1cccc(C(c2cccc(F)c2)C2CCCNC2)c1` (stereo not drawn) [Compound 111], for which the concentration for half-maximal inhibition (IC50) is 0.645 µM and 0.79 µM in the assay on NMDA receptor; 0.167 µM in assay [1].
Take `Fc1cccc(C(c2cccc(F)c2)C2CCNCC2)c1` [Compound 112]: the half-inhibitory concentration (IC50) in the assay with NMDA receptor is 28 µM and 28.9 µM; in assay [1], 21 µM.
For `COc1cccc(C(CCN)c2cccc(OC)c2)c1` [Compound 115, 3,3-bis(3-methoxyphenyl)-1-propylamine], the IC50 in the assay on NMDA receptor was 1.4 µM and 1.9 µM; in assay [1] it was 1 µM.
For the molecule `NCCN(c1ccccc1)c1ccccc1` [Compound 117], the IC50 with NMDA receptor turned out to be 19.6 µM; in assay [1], 6 µM.
Consider `NCCC(Oc1ccccc1)c1cccc(F)c1` (stereo not drawn) [Compound 118], for which the IC50 worked out at 0.409 µM in the assay with NMDA receptor and 0.24 µM in assay [1].
